In US20220151995A1, “PHARMACEUTICAL COMPOSITION FOR TREATING CANCER AND SUPPRESSING METASTASIS, CONTAINING SULFONAMIDE-BASED COMPOUND AS ACTIVE INGREDIENT” (EXOSTEMTECH CO., LTD, priority 2015, published 2022):

Tests used:
[1] = system: MDA-MB231-CD63-GFP(+) cells; test: Exosome (CD63-GFP) secretion screening of FDA-approved drugs, supernatant fluorescence; type: cell-based; conditions: 24 h, fluorescence 485/538 nm, % of control group, read-out: exosome inhibition rate (relative fluorescence, of control group)
Description: Among a total of 1,163 FDA-approved drug libraries, drugs effective in inhibiting exosome secretion of the MDA-MB231 triple negative breast cancer cell line were selected by carrying out screening twice. Sulfisoxazole, Sulfadiazine, Sulfathiazole and Ambrisentan, all of which are ETA receptor antagonists, were selected.
The percentage of inhibition rate of exosome secretion was evaluated for each of the selected ETA receptor antagonists. Briefly, MDA-MB231-CD63-GFP(+) cells were incubated with 30 pM of 1,163 individual FDA-approved drugs for 24 h. The fluorescence of each supernatant was measured at 485 nm (excitation) and 538 nm (emission) using a fluorescence microplate reader. Y-axis indicates the inhibition rate of exosome (CD63-GFP), and X-axis indicates the number of FDA-approved drugs.

[2] = system: LLC1 tumor cells
Description: The cancer animal models were prepared on the last day acclimatization. C57BL/6 mice used for the production of LLC1 tumor mouse model were used as experimental animals, and after inoculation of LLC1 tumor cells in the mouse thigh at a concentration of 5×10^5 cells/head, SFX was administered from the time when the tumor volume reached 50 mm^3.
After uniformly mixing the SFX solution prepared for each concentration by vortexing, a sonde for mice was connected to a 1 mL syringe to fill the solution, and 100 μL of the solution was orally administered to each mouse in each group.
Tumor volume was measured daily. The volume of the tumor was measured using a vernier caliper on the major axis and the minor axis, and the height was calculated as ½ the size of the minor axis.
[Tumor volume (mm3)=major axis (mm)×minor axis (mm)×½ of the minor axis]
Mouse body weight was measured every other day from the start of the test, and was measured after oral administration of the drug.

[3] = system: MDA-MB231 cells; test: Cancer cell migration, scratch assay (T-scratch); type: cell-based; conditions: 24 hours, medium containing 2% serum; T-scratch quantification
Description: MDA-MB231 cells were seeded in a 24-well plate at 2×10^5 cells/well, and then incubated for 24 hours for the proliferation to a monolayer. After the incubation for 24 hours, the monolayer was straightly scratched with a yellow tip. The cells were washed with PBS to remove floating cells, and then photographed (0 h). Thereafter, a drug was added to a medium containing 2% serum, and then the cells were treated with the medium, and then incubated for 24 hours (24 h). After 24 hours, the cells were photographed for the same site to compare cell migration. The measurement of cell migration was carried out using T-scratch program.

[4] = system: MDA-MB231 cells; test: Matrigel invasion assay; type: cell-based; conditions: 25, 50, 100 and 200 μM, 48 hours, compared with the controls
Description: A 8[…] insert was placed in a 24-well plate, coated with serum-free medium and Matrigel, and then solidified at 37 for 4 hours. Then, 800µ1 of 10% FBS was added to the lower chamber and 1×10^4 MDA-MB231 cells were added to the upper chamber, followed by treatment with sulfisoxazole or sulfadoxine at 25, 50, 100, and 200µM. After 48 hours, the Matrigel in the insert was removed, followed by washing with PBS, and then the lower chamber was fixed with 60% ethanol, and then stained with crystal violet.

[5] = system: A549; test: Cancer exosome secretion, number of exosomes by Nanosight; type: cell-based; conditions: SFX 100 μM and 200 μM, one day; compared to control (DMSO)
Description: After seeding 2×10^6 cells of A549 in T-flask, they were stabilized with growth medium for 24 hours. To isolate cancer exosomes, T-flask was treated with SFX at different concentrations (0, 100, 200 μM), and then lung cancer cells were cultured for one day. After the cell culture medium was collected and filtered, exosomes were separated through ultracentrifugation, and the number of exosomes was determined with Nanosight (FIG. 11).

[6] = system: A549 cells; test: Cancer cell proliferation, WST-1 assay; type: cell-based; conditions: 100 μM and 200 μM daily, 72 hours; compared to control (DMSO)
Description: A549 cells were seeded in a 12-well plate at a concentration of 3×10^4 cells/well and then stabilized with growth medium for 24 hours. To evaluate cancer cell growth inhibition, SFX was treated daily at different concentrations (0, 100, 200 μM). After 72 hours, cell growth rate was determined by WST-1 assay (FIG. 13).

[7] = system: MDA-MB231 cells; test: Cancer cell proliferation, MTT assay; type: cell-based; conditions: 25, 50, 100 and 200 μM; MTT absorbance at 495 nm; compared with the control
Description: After the 12-hour incubation, the cells were treated with sulfisoxazole and sulfadoxine at 25, 50, 100, and 200µM, and then re-treated with the same drugs […]. Thereafter, the cells were treated with MT tetrazolium reagent for each time, and then incubated for […]. After 4 hours, the cell proliferation effect was investigated by measuring the absorbance at 495 nm of reduced MTT formazan (3-(4,5-dimethylthiazol-2-yl)-2,5-diphenyl-tetrazolium bromide). The docetaxel (10µM), which is an anticancer drug currently in use, was used as a control.

Row | SMILES | activity at 30 pM [1] [%] | migration of cancer cells [3] | invasion of cancer cells [4] | proliferation of MDA-MB231 cell lines [7] | further results
1 | Nc1ccc(S(=O)(=O)Nc2nccs2)cc1 [sulfathiazole, Sulfathiazole] | 93.8 | – | – | – | –
2 | Nc1ccc(S(=O)(=O)Nc2ncccn2)cc1 [sulfadiazine, Sulfadiazine] | 89.9 | – | – | – | –
3 | COC(c1ccccc1)(c1ccccc1)[C@H](Oc1nc(C)cc(C)n1)C(=O)O [ambrisentan, Ambrisentan] | 101 | – | – | – | –
4 | Cc1noc(NS(=O)(=O)c2ccc(N)cc2)c1C [sulfisoxazole] | 60.8 | inhibited dependent on the concentration | significantly inhibited | inhibited dependent on the concentration | tumor weight ([2]; 200 and 400 mg/kg orally, end of the experiment, compared to vehicle group): tendency to decrease; mice that died (survival) ([2]; oral SFX administration for each concentration): no mice that died; body weight of the animals ([2]; oral SFX administration, measured every other day): did not show a significant change; level of cancer exosome secretion [5]: significantly reduced; A549 cell growth [6]: inhibited in a concentration-dependent manner
5 | COc1ncnc(NS(=O)(=O)c2ccc(N)cc2)c1OC [sulfadoxine] | – | inhibited dependent on the concentration | significantly inhibited | significantly inhibited | –
